Data: patent US20080260807A1, “Water-Soluble Films Comprising Nicotine” (Bio Progress Technology Limited, priority 2005, published 2008)

How the values were obtained:
[1] = aqueous solution of hydroxyl ethyl cellulose, Pullulan, polyvinyl pyrollidone and propylene glycol alginate, cast to thin film
Source text: Alternatively, films of the present invention can be made by dissolving NBD in an aqueous solution of hydroxyl ethyl cellulose, Pullulan, polyvinyl pyrollidone (“PVP”), and propylene glycol alginate (“POGA”). This solution can then be cast to form thin films of the present invention. […] Films made according to the process, in addition to comprising embodiments of the present invention, can be used as the base water-soluble film to which the fluid comprising nicotine is applied. Further, or in the alternative, the aqueous solution thus described can comprise the fluid comprising nicotine for application to the base water-soluble film.

[2] = in water or alcohol; cited from earlier work

CN1CCCC1c1cccnc1.O.O.O=C(O)C(O)C(O)C(=O)O (centres unmarked) [Nicotine Bitartrate Dihydrate, nicotine bitartrate dihydrate]
Crystallisation during formation of the film [1]: does not crystallize

CN1CCCC1c1cccnc1 (centres unmarked) [Nicotine]
Solubility [2]: Soluble in water
